Experiments:
[1] = system: HCT-15 cells derived from human colon carcinoma; conditions: Kamei and coworkers (1995); cited from earlier work
HT-29 colon cancer cells = experiment: Cell proliferation of HT-29 cells (hemacytometer count, Trypan blue exclusion); type: cell-based, human; conditions: HT-29 carcinoma cells, pure anthocyanin
Experimental: Cell Culture—Human HT-29 colon cancer cells (ATCC, HTB 38) were grown in McCoy's 5A medium (BioWhitaker Inc., Walkersville, Md.), and normal colon epithelial cells, NCM460 (INCELL Corp. LLC, Austin, Tex.) were grown in 25% conditioned M3:10 medium (INCELL Corp., LLC). Media were supplemented with 10% fetal bovine serum (FBS) and 1× antibiotic-antimycotic (Invitrogen Corporation, Carlsbad, Calif.), and cells were maintained in a humidified atmosphere of 95% air/5% CO2 at 37° C. […] Cell Proliferation—Freshly trypsinized cells were seeded in 25-cm^2 (1×10^6 cells) or 75-cm^2 (2×10^6 cells) flasks in duplicate. The cells were grown for 24 h under normal growth conditions prior to treatment with chokeberry ARE. Freshly prepared ARE was added in concentrations ranging from 10 to 200 μg monomeric anthocyanin/ml medium. A vehicle control contained acidified water and was added at the same volume as ARE added to treated cells. […] Prior to exposure to ARE for 24 h, 48 h or 72 h treatments, the medium was replaced with fresh medium (10% FBS) containing either vehicle control (acidified water) or ARE. For each time point, the cells were trypsinized and centrifuged at 400 g for 10 min at room temperature. Aliquots of cells were counted using a hemacytometer and viability measured using Trypan blue dye exclusion.

Oc1cc(O)c2cc(O)c(-c3ccc(O)c(O)c3)[o+]c2c1 [cyanidin, Cyanidin]
dose for 50% cell growth suppression [1]: 2 µg/mL

OC[C@H]1O[C@@H](Oc2cc3c(O)cc(O)cc3[o+]c2-c2ccc(O)c(O)c2)[C@H](O)[C@@H](O)[C@H]1O [cyanidin-3-galactoside]
cancerous colonic cell growth (visual observations of cell growth and viability) (HT-29 colon cancer cells): notably inhibited

Oc1cc(O)c2cc(O)c(-c3cc(O)c(O)c(O)c3)[o+]c2c1 [delphinidin, Delphinidin]
dose for 50% cell growth suppression [1]: 0.5 µg/mL

Oc1ccc(-c2[o+]c3cc(O)cc(O)c3cc2O)cc1 [pelargonidin, Pelargonidin]
dose for 50% cell growth suppression [1]: 5 µg/mL

Source: patent US8034388B2, “Anthocyanin-rich compositions and methods for inhibiting cancer cell growth” (The University of Maryland, priority 2003, dated 2011)
